Results reported in patent publication US6469028B1, “Synthesis and use of retinoid compounds having negative hormone and/or anatgonist activities” (Allergan, Inc., priority 1995, dated 2002).

Assays:
RARα = molecular target: T1, RARα (Homo sapiens, UniProt P10276); test: Example 8: protease protection analysis; assay type: biochemical; design: host or cells: TNT-coupled reticulocyte lysate in vitro transcription-translation; details: ATRA and AGN 193109 100 nM, AGN 193583 1000 nM; trypsin 25, 50 or 100 μg/ml, 10 minutes
T1 sequence (P10276 1-462): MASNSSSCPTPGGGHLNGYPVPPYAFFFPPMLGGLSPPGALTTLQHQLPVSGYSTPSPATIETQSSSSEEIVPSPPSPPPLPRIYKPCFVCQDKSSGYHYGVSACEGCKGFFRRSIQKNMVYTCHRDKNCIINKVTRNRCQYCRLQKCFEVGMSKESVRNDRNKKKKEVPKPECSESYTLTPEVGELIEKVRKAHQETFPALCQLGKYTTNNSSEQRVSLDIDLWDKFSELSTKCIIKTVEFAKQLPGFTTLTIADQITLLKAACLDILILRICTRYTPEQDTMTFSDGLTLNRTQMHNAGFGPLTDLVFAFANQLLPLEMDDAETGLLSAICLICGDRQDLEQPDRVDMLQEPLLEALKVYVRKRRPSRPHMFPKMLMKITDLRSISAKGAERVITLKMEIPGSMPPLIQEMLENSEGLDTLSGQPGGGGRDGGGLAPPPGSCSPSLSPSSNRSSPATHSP
Procedure: A plasmid constructed in the vector pGEM3Z (Pharmacia) and containing the RAR-α cDNA (Giguere et al. Nature 330:624 (1987)), was used in connection with the TNT-coupled reticulocyte lysate in vitro transcription-translation system (Promega) to prepare [^35S]-methionine labeled RAR-α. Limited proteolytic digestion of the labeled protein RAR-α was carried out according to the method described by Keidel et al. in Mol. Cell. Biol. 14:287 (1994). […] After ligand binding, 1 μl of appropriately concentrated trypsin was added to the mixture to give final concentrations of 25, 50 or 100 μg/ml. Samples were incubated at room temperature for 10 minutes and trypsin digestion stopped by addition of SDS-sample buffer. Samples were subjected to polyacrylamide gel electrophoresis and autoradiographed according to standard procedures.

guinea pigs = test: Example 5: premature epiphyseal plate closure (bone toxicity); assay type: in vivo; details: AGN 191183 0.06 mg/ml + AGN 193109 0.34 mg/ml (5-fold molar excess), osmotic pump, 14 days
Procedure: The osmotic pumps are designed by the manufacturer to deliver ˜5 μl of solution per hour continuously for 14 days.
The animals were euthanized by carbon dioxide asphyxiation 14 days after implantation. The left tibia was removed and placed in 10% buffered formalin. The tibias were decalcified by exposure to a formic acid/formalin solution for 3-4 days, and paraffin sections were prepared. Sections were stained with hematoxylin and eosin by standard methods. The proximal tibial epiphyseal plate was examined and scored as closed or not closed. Epiphyseal plate closure is defined for this purpose as any interruption of the continuity of the epiphyseal growth plate cartilage, i.e., replacement by bone and/or fibroblastic tissue.

ECE16-1 cells = test: Example 17: EGF dependent proliferation of ECE16-1 cells; assay type: cell-based
Procedure: ECE16-1 cells were seeded at a density of 1×10^4 cells per cm^2 in complete medium containing DMEM:F12 (3:1), nonessential amino acids, 5% FBS, 5 μg/ml transferring, 2 nM of 3,3′,5 triiodothyronine (thyroid hormone or “T3”), 0.1 nNM cholera toxin, 2 mM L-glutamine, 1.8×10^−4 M adenine and 10 ng/ml EGF. Cells were allowed to attach to plates overnight and then shifted to defined medium containing DMEM:F12 (3:1), 2 mM L-glutamine, nonessential amino acids, 0.1% bovine serum albumin, 1.8×10^−4 M adenine, 5 μg/ml transferring, 2 nM T3, 50 μg/ml ascorbic acid, 100 ug/ml streptomycin, 100 units/ml penicillin and 50 μg/ml gentamicin. Defined medium (DM) was supplemented with 10 ng/ml EGF. […] After three days of treatment, cells were harvested as described by Hembree et al. in Cancer Res. 54:3160 (1994) and cell numbers determined using a COULTER counter.

rabbits = test: Example 24: rabbit model of proliferative vitreoretinopathy (PVR); assay type: in vivo
[1] = system: retinal pigment epithelium (RPE) cells; test: Example 19: proliferation of primary retinal pigment epithelium cultures; assay type: cell-based, human
Procedure: Primary cultures of human retinal pigment epithelium (RPE) were established according to the method described by Campochiaro et al. in Invest. Opthal & Vis. Sci. 32:65 (1991). 5×10^4 cells were plated in 16-mm wells of 24-well multiwell plates in DMEM (Gibco) containing 5% FBS. […] Cells were fed with fresh media containing the appropriate concentrations of these compounds every two days for a total of five days of treatment. Cells were removed from the plates by gentle digestion with trypsin and the number of cells was counted with an electronic cell counter.
AGN 193109 was tested for its ability to potentiate the anti-proliferative effect of 13-cis retinoic acid (13-cis RA) in primary RPE cultures using conditions and techniques to measure RPE cell proliferation described above. […] More particularly, 13-cis RA is useful in the treatment of several disease states, including acne (Peck et al. N. Engl. J. Med. 300:329 (1977); Jones et al. Br. J. Dermatol. 108:333 (1980)), and squamous cell carcinoma of the skin and cervix in combination treatment with interferon 2α (Lippman et al. J. Natl. Cancer Inst. 84:241 (1992); Moore et al. Seminars in Hematology 31:31 (1994)).
We next tested the ability of AGN 193109 to potentiate the activities of other nuclear receptor hormones in primary RPE cell cultures. Dexamethasone, a synthetic glucocorticoid receptor agonist, is one member of a class of compounds that have been used clinically for their potent anti-inflammatory and immunosuppressive properties. Thyroid hormone (T3; […]) is a natural thyroid hormone receptor agonist used primarily for hormone replacement therapy in the treatment of hypothyroidism.

How did the “pattern of trypsin sensitivity of labeled RAR-α after prebinding” value (RARα) turn out when Cc1ccc(C2=CCC(C)(C)c3ccc(C#Cc4ccc(C(=O)O)cc4)cc32)cc1 [Compound 60, 4-[(5,6-dihydro-5,5-dimethyl-8-(4-methylphenyl)-2-naphthalenyl)ethynyl]benzoic acid] was run?
The value was “a protease protection pattern that was indistinguishable from that produced by prebinding of ATRA”.

And the epiphyseal plate closure (guinea pigs)?
The epiphyseal plate closure was “completely blocked AGN 191183-induced bone toxicity”.

What about the EGF mediated proliferation (ECE16-1 cells; 1000 nM AGN 193109 alone) of the same compound?
Its EGF mediated proliferation is “no effect on the EGF mediated proliferation increase”.

What about the “antagonism of AGN 191183 mediated growth inhibition” value (ECE16-1 cells; AGN 193109 10 nM with 10 nM AGN 191183) of the same compound?
Its value is “approximately 50%”.

And the “antagonism of AGN 191183 antiproliferative effect” value (ECE16-1 cells; ten-fold molar excess of AGN 193109 over 10 nM AGN 191183)?
Its value is “completely reversed the antiproliferative effect of AGN 191183”.

What about the “frequency and severity of tractional retinal detachment” value (rabbits; AGN 193109 100 μg + retinoic acid 10 μg intravitreal) of the same compound?
Its value is “significantly reduced frequency and severity of retinal detachment”.

What about the “incidence and severity of retinal detachment” value (rabbits; second study, AGN 193109 100 μg + thyroid hormone 100 μg) of the same compound?
The value was “significantly reduced incidence and severity of retinal detachment”.

What about the “retinal detachment compared with control rabbits” value (rabbits; second study, single agent 100 μg intravitreal) of the same compound?
The value was “does not inhibit retinal detachment”.

And the “enhancement of the antiproliferative activity of ATRA” value ([1]; 10^−10 M ATRA with 10^−7 M AGN 193109 equals 10^−8 M ATRA alone)?
Its value is “approximately 100 fold”.

And the “potency of 13-cis RA in repression of RPE cell proliferation” value ([1]; AGN 193109 10^−8 or 10^−6M with 13-cis RA 10^−12 to 10^−6M)?
The value was “dramatically increased the potency of 13-cis RA”.

What about the “growth rate of the RPE cells” value ([1]; AGN 193109 alone, 10^−10 to 10^−6 M) of the same compound?
Its value is “did not substantially alter the growth rate of the RPE cells”.

And the RPE cell proliferation ([1]; dexamethasone 10^−11 to 10^−6M with 10^−8 or 10^−6M AGN 193109)?
The RPE cell proliferation was “repressed RPE cell proliferation to an extent that approximated the inhibition caused by treatment with ATRA”.

What about the RPE cell proliferation ([1]; thyroid hormone 10^−11 to 10^−6M with AGN 193109 10^−8 or 10^−6M) of the same compound?
The RPE cell proliferation was “inhibited RPE cell proliferation in a thyroid hormone dependent manner”.
